From patent publication US20240092799A1, “MNK INHIBITORS” (Hepagene Therapeutics (HK) Limited, priority 2020, published 2024)
Counter-ions that a name gives are not always drawn.

Assays:
[1] = tested on: TMD-8 cell p-IF4E; experiment: p-eIF4E Signaling Cellular Assay (CisBio HTRF) in TMD-8 cells; assay type: cell-based; settings: Homo sapiens, TMD8, 40 min, 40 min treatment
Description: p-eIF4E Signaling Cellular Assay. Phosphorylated eIF4E is assayed using the CisBio p-Eif4E HTRF assay kit. Reagents and equipment used in the assay are listed below, followed by the protocol.
Cell medium: RPMI 1640+10% FBS+1*PS, TMD-8 were cultured as recommended and assayed in exponential growth phase. • a) Plate 30 μL of cells in 384 white assay plate in appropriate medium and proper cell density (20 k/well) based on Optimization at 37° C. under 5% CO2 atmosphere • b) Dispense 90 nL of compounds diluted in DMSO and treat for 40 min at 37° C. under 5% CO2 atmosphere • c) Remove cell supernatant by flicking the plate • d) Add 16 μL of supplemented lysis buffer (1×) for 30 minutes at RT under shaking • e) Add 4 μL of premixed antibody solutions prepared in the detection buffer. Cover the plate with a plate sealer. Incubate 0/N at RT • f) Read the fluorescence emission at 665 nm and 620 nm on Envision • g) Data analysis • (1) Ratio […] signal is calculated for each well • (2) % Inhibition is calculated as follow:
% inhibition=100−(Signalcmpd-SignalAve_PC)/(SignalAve_VC-SignalAve_PC)×100. • (3) Calculate IC50 and Plot effect-dose curve of cmpds:
Calculate IC50 by fitting % Inhibition values and log of compound concentrations to nonlinear regression (dose response−variable slope) with Graphpad 8.0.
Y=Bottom+(Top−Bottom)/(1+10^((Log IC50−X)*Hill Slope)) • X: log of Inhibitor concentration; Y: % Inhibition.

[2] = target: MNK2 (Homo sapiens (Human), UniProt Q9HBH9); experiment: MNK Biochemical Enzymatic Assay (ADP-Glo), MNK2 binding assay
How it was run: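 Human MNK1 or MNK2 was preincubated with a 10-point, 1:3 serial dilution of compound for 15 min at 25 °C. Substrate was then added and the reaction ran 60 min at 25 °C. ADP formed was read by ADP-Glo luminescence, and IC50 came from non-linear regression.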

MNK2, sequence (Q9HBH9 whole entry): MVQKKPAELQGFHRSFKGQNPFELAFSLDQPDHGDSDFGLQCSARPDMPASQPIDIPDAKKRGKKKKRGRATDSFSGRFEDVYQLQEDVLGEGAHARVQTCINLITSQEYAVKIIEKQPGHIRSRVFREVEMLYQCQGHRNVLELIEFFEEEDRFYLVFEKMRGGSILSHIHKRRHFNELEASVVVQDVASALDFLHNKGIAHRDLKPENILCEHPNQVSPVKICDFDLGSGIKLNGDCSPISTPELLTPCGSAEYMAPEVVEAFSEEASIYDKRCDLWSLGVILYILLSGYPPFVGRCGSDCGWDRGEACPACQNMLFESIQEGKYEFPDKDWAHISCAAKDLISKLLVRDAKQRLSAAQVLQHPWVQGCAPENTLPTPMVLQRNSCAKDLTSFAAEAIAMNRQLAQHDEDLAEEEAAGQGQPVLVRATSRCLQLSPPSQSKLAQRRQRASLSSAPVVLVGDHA

SMILES	IC50 [1]	IC50 [2]
CN(C)[C@H]1CCN(C(=O)C2CCc3c(sc4ncnc(Nc5cc6c(s5)C(=O)NC65CCCCC5)c34)C2)C1 (stereo partly drawn) [Compound XXV, 2′-((7-((S)-3-(Dimethylamino)pyrrolidine-1-carbonyl)-5,6,7,8-tetrahydrobenzo[4,5]thieno[2,3-d]pyrimidin-4-yl)amino)spiro[cyclohexane-1,4′-thieno[2,3-c]pyrrol]-6′(5′H)-one]	100 to 1000 nM	10 to 100 nM
Cn1cnc(Nc2cc(Nc3nc4c(s3)C(=O)NC43CCCCC3)ncn2)n1 [Compound XXVIII-K, 2′-((6-((1-methyl-1H-1,2,4-triazol-3-yl)amino)pyrimidin-4-yl)amino)spiro[cyclohexane-1,4′-pyrrolo[3,4-d]thiazol]-6′(5′H)-one]	10 to 100 nM	0.1 to 10 nM
Cc1cc(Nc2cc(N[C@@H]3COC[C@H]3O)ncn2)[n+]([O-])c2c1C(=O)NC21CCCCC1 (relative stereo) [Compound XXIX-AE, 2′-((6-((trans-4-hydroxytetrahydrofuran-3-yl)amino)pyrimidin-4-yl)amino)-4′-methyl-5′-oxo-5′,6′-dihydrospiro[cyclohexane-1,7′-pyrrolo[3,4-b]pyridine] 1′-oxide]	10 to 100 nM	0.1 to 10 nM
O=C1NC2(CCCCC2)c2cc(Nc3cc(NC(=O)C4CCCC4)ncn3)sc21 [Compound XX-D, N-(6-((6′-Oxo-5′,6′-dihydrospiro[cyclohexane-1,4′-thieno[2,3-c]pyrrol]-2′-yl)amino)pyrimidin-4-yl)cyclopentanecarboxamide]	100 to 1000 nM	0.1 to 10 nM
O=C1NC2(CCCCC2)c2cc(Nc3ncnc4[nH]cnc34)sc21 [Compound XVII, 2′-((9H-Purin-6-yl)amino)spiro[cyclohexane-1,4′-thieno[2,3-c]pyrrol]-6′(5′H)-one]	100 to 1000 nM	0.1 to 10 nM
Cn1cc(Nc2cc(Nc3cc4c(s3)C(=O)NC43CCCCC3)ncn2)cn1 [Compound XXIV-K, 2′-((6-((1-methyl-1H-pyrazol-4-yl)amino)pyrimidin-4-yl)amino)spiro[cyclohexane-1,4′-thieno[2,3-c]pyrrol]-6′(5′H)-one]	100 to 1000 nM	0.1 to 10 nM
Cc1cc(Nc2cc(NC(=O)C3CCCO3)ncn2)[n+]([O-])c2c1C(=O)NC21CCCCC1 (stereo not drawn) [Compound XXIX-AW, 4′-methyl-5′-oxo-2′-((6-(tetrahydrofuran-2-carboxamido)pyrimidin-4-yl)amino)-5′,6′-dihydrospiro[cyclohexane-1,7′-pyrrolo[3,4-b]pyridine] 1′-oxide]	10 to 100 nM	0.1 to 10 nM
Cc1cc(Nc2cc(Nc3cc[nH]n3)ncn2)[n+]([O-])c2c1C(=O)NC21CCCCC1 [Compound XXIX-AS, 2′-((6-((1H-pyrazol-3-yl)amino)pyrimidin-4-yl)amino)-4′-methyl-5′-oxo-5′,6′-dihydrospiro[cyclohexane-1,7′-pyrrolo[3,4-b]pyridine] 1′-oxide]	0.1 to 10 nM	0.1 to 10 nM
Cc1cc(Nc2cc(Nc3ccn(C(C)C)n3)ncn2)[n+]([O-])c2c1C(=O)NC21CCCCC1 [Compound XXIX-AAQ, 2′-((6-((1-isopropyl-1H-pyrazol-3-yl)amino)pyrimidin-4-yl)amino)-4′-methyl-5′-oxo-5′,6′-dihydrospiro[cyclohexane-1,7′-pyrrolo[3,4-b]pyridine] 1′-oxide]	0.1 to 10 nM	0.1 to 10 nM
Cc1cc(Nc2cc(Nc3ccc(N4CCOCC4)cn3)ncn2)[n+]([O-])c2c1C(=O)NC21CCCCC1 [Compound XXIX-AAJ, 4′-methyl-2′-((6-((5-morpholinopyridin-2-yl)amino)pyrimidin-4-yl)amino)-5′-oxo-5′,6′-dihydrospiro[cyclohexane-1,7′-pyrrolo[3,4-b]pyridine] 1′-oxide]	0.1 to 10 nM	0.1 to 10 nM
Cc1ccnc(Nc2cc(Nc3cc(C)c4c([n+]3[O-])C3(CCCCC3)NC4=O)ncn2)c1 [Compound XXIX-AAI, 4′-methyl-2′-((6-((4-methylpyridin-2-yl)amino)pyrimidin-4-yl)amino)-5′-oxo-5′,6′-dihydrospiro[cyclohexane-1,7′-pyrrolo[3,4-b]pyridine] 1′-oxide]	0.1 to 10 nM	0.1 to 10 nM
CNC(=O)Nc1cc(Nc2nc3c(s2)C(=O)NC32CCCCC2)ncn1 [Compound XXVIII-L, 1-methyl-3-(6-((6′-oxo-5′,6′-dihydrospiro[cyclohexane-1,4′-pyrrolo[3,4-d]thiazol]-2′-yl)amino)pyrimidin-4-yl)urea]	100 to 1000 nM	0.1 to 10 nM
O=C1NC2(CCCCC2)c2nc(Nc3ccnc(N[C@H]4CCOC4)c3)sc21 [Compound XXVIII-H, (S)-2′-((2-((tetrahydrofuran-3-yl)amino)pyridin-4-yl)amino)spiro[cyclohexane-1,4′-pyrrolo[3,4-d]thiazol]-6′(5′H)-one]	10 to 100 nM	0.1 to 10 nM
O=C1NC2(CCCCC2)c2c1sc(Nc1cc(N[C@H]3CCOC3)ncn1)c2Cl [Compound XXI-A, (S)-3′-chloro-2′-((6-((tetrahydrofuran-3-yl)amino)pyrimidin-4-yl)amino)spiro[cyclohexane-1,4′-thieno[2,3-c]pyrrol]-6′(5′H)-one]	10 to 100 nM	0.1 to 10 nM
O=C1NC2(CCCCC2)c2nc(Nc3cc(Nc4ccccn4)ncn3)sc21 [Compound XXVIII-B, 2′-((6-(pyridin-2-ylamino)pyrimidin-4-yl)amino)spiro[cyclohexane-1,4′-pyrrolo[3,4-d]thiazol]-6′(5′H)-one]	10 to 100 nM	0.1 to 10 nM
CC(=O)N(C)c1cccc(Nc2cc(Nc3cc(C)c4c([n+]3[O-])C3(CCCCC3)NC4=O)ncn2)n1 [Compound XXIX-AA, 4′-methyl-2′-((6-((6-(N-methylacetamido)pyridin-2-yl)amino)pyrimidin-4-yl)amino)-5′-oxo-5′,6′-dihydrospiro[cyclohexane-1,7′-pyrrolo[3,4-b]pyridine] 1′-oxide]	0.1 to 10 nM	0.1 to 10 nM
CN1CCN(c2ccc(Nc3cc(Nc4cc5c(s4)C(=O)NC54CCCCC4)ncn3)nc2)CC1 [Compound XXIII-T, 2′-((6-((5-(4-methylpiperazin-1-yl)pyridin-2-yl)amino)pyrimidin-4-yl)amino)spiro[cyclohexane-1,4′-thieno[2,3-c]pyrrol]-6′(5′H)-one]	10 to 100 nM	0.1 to 10 nM

Second part, the compound after the results:

IC50 [1]	IC50 [2]	SMILES
0.1 to 10 nM	0.1 to 10 nM	Cc1cc(Nc2cc(Nc3ccn(C(F)(F)F)n3)ncn2)[n+]([O-])c2c1C(=O)NC21CCCCC1 [Compound XXIX-AF, 4′-methyl-5′-oxo-2′-[(6-{[1-(trifluoromethyl)pyrazol-3-yl]amino}pyrimidin-4-yl)amino]-6′H-spiro[cyclohexane-1,7′-pyrrolo[3,4-b]pyridin]-1′-ium-1′-olate]
0.1 to 10 nM	0.1 to 10 nM	COc1c(N)ncnc1Nc1cc(C)c2c([n+]1[O-])C1(CCCCC1)NC2=O [Compound XXIX-Z, 2′-((6-amino-5-methoxypyrimidin-4-yl)amino)-4′-methyl-5′-oxo-5′,6′-dihydrospiro[cyclohexane-1,7′-pyrrolo[3,4-b]pyridine] 1′-oxide]
0.1 to 10 nM	0.1 to 10 nM	Cn1ccc(Nc2cc(Nc3nc4c(s3)C(=O)NC43CCCCC3)ncn2)n1 [Compound XXVIII-M, 2′-((6-((1-methyl-1H-pyrazol-3-yl)amino)pyrimidin-4-yl)amino)spiro[cyclohexane-1,4′-pyrrolo[3,4-d]thiazol]-6′(5′H)-one]
0.1 to 10 nM	0.1 to 10 nM	Cc1cc(Nc2cc(Nc3ccc(N4CCN(CCO)CC4)cn3)ncn2)[n+]([O-])c2c1C(=O)NC21CCCCC1 [Compound XXIX-AAP, 2′-((6-((5-(4-(2-hydroxyethyl)piperazin-1-yl)pyridin-2-yl)amino)pyrimidin-4-yl)amino)-4′-methyl-5′-oxo-5′,6′-dihydrospiro[cyclohexane-1,7′-pyrrolo[3,4-b]pyridine]1′-oxide formate salt]
0.1 to 10 nM	0.1 to 10 nM	Cc1cc(Nc2cc(Nc3ccccc3)ncn2)[n+]([O-])c2c1C(=O)NC21CCCCC1 [Compound XXIX-AH, 4′-methyl-5′-oxo-2′-((6-(phenylamino)pyrimidin-4-yl)amino)-5′,6′-dihydrospiro[cyclohexane-1,7′-pyrrolo[3,4-b]pyridine] 1′-oxide]
0.1 to 10 nM	0.1 to 10 nM	Cc1cc(Nc2cc(Nc3ccn(C)n3)ncn2)[n+]([O-])c2c1C(=O)NC21CCCCC1 [Compound XXIX-K, 4′-methyl-2′-((6-((1-methyl-1H-pyrazol-3-yl)amino)pyrimidin-4-yl)amino)-5′-oxo-5′,6′-dihydrospiro[cyclohexane-1,7′-pyrrolo[3,4-b]pyridine] 1′-oxide]
0.1 to 10 nM	0.1 to 10 nM	Cc1cc(Nc2cc(Nc3ccc(N4CCCCC4)cn3)ncn2)[n+]([O-])c2c1C(=O)NC21CCCCC1 [Compound XXIX-AAM, 4′-methyl-5′-oxo-2′-((6-((5-(piperidin-1-yl)pyridin-2-yl)amino)pyrimidin-4-yl)amino)-5′,6′-dihydrospiro[cyclohexane-1,7′-pyrrolo[3,4-b]pyridine] 1′-oxide]
